Data set [1] has as its system AHR. The arrangement: method as in PMID 33260776. The following applies: 10 nM, H9 cells; two genes less expressed, 14 higher expressed; cited from earlier work.
Data set [2] has as its system AHR. The arrangement: method as in PMID 33230523. The following applies: human cells overexpressing either AHR version; cited from earlier work.
Data set [3] has as its target T1, AHR^V381 (Homo sapiens, UniProt P35869).
T1 sequence (P35869 11-848): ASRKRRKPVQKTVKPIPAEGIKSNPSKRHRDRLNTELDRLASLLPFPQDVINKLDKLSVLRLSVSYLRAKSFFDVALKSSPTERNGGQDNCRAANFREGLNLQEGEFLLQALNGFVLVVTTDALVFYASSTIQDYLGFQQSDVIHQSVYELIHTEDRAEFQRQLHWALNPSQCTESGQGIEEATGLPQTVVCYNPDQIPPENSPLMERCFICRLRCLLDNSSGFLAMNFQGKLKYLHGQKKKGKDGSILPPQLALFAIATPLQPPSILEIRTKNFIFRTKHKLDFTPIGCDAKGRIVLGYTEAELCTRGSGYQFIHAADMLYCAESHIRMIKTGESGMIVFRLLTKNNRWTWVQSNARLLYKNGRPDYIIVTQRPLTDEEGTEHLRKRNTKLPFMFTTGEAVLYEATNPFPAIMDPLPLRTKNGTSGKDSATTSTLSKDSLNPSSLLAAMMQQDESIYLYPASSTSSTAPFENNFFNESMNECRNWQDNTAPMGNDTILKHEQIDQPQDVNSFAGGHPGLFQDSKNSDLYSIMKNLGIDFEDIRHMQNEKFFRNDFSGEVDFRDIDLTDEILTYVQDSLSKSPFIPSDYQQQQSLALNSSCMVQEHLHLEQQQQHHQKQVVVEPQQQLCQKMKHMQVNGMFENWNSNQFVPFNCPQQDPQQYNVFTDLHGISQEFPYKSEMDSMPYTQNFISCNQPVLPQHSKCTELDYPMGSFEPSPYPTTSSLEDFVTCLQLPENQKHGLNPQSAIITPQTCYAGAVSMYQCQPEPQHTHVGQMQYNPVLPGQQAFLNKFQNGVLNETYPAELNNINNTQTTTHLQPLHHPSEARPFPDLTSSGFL
The note with it: AHR^V381 cells, 4 h.
Experimental: We incubated the cells with different concentrations of AHR ligands and measured CYP1A1 and CYP1B1 mRNA levels after 4 h.
Error bars show SDs of four independent ligand treatments. qPCR were performed in triplicates.
AHR, CYP1A1 and CYP1B1 relative quantification and ligand assays
were purchased from Sigma-Aldrich, dissolved in DMSO (Invitrogen, D12345) to generate stocks 2000x
the final concentrations used in the ligand assays and stored at -20°C.
Four days prior to cell harvest, a single cell solution was prepared with Accutase and the cells were
3000 cells per well were seeded in 96 well plates
and cultured under normal cell culture conditions for four days, with the last media change 24h before cell
harvest. Ligands were added to a final concentration of 0.05% DMSO in the culture medium for four hours
similar to other work (13-15). Cell harvest, reverse transcription and quantitative real-time PCR was […]
for several samples also AHR was measured in a 20 µl multiplexed quantitative PCR reaction with 10 µl […]
GUSB) or Thermo Fisher Scientific (CYP1B1, AHR), sequences: Suppl, Table S1). Quantitative PCR was […]
5 min, 45x (95 °C 5 s, 60 °C 15 s, 72 °C 15 s, plate read). […]
Cq values were determined with Bio-Rad Laboratories’ CFX-Manager (version 3.1) and relative […]
gene in untreated wild type cells. The data were plotted and analyzed using GraphPad Prism (version 8.4.3). […]

The target in data set [4] is T1, AHR^V381. The data set is described as follows: RNA sequencing of treated versus mock-treated AHR^V381-expressing H9 cells. The arrangement: they had not been changed in the editing process; endogenous in cells; host or cells: H9 human embryonic stem cells, a pool of 13 control clones that went through editing but remained wild type. The following applies: 5 µM, 4 h. The format is cell-based. An excerpt: (§1) the manufacturer's instructions.
(§2) manufacturer’s instructions.

Another data set addresses T2, AHR^A381 (Homo sapiens, UniProt P35869, V381A).
T2 sequence (P35869 11-848 V381A): T1 sequence (P35869 11-848) with V371A
The note with it: 5 µM, 4 h.
Text: as §1, §2

Positions count from the first letter of the chain named.

Consider three compounds from PMC11145187 (Proceedings of the National Academy of Sciences of the …, 2024).

Take `Clc1cc2c(cc1Cl)Oc1cc(Cl)c(Cl)cc1O2` [2,3,7,8-Tetrachlorodibenzo-p-dioxin]: in the data set with AHR [1], the “number of the 117 differentially expressed genes affected by TCDD exposure” value is 16 genes. For the same compound, in the data set on AHR [2], the “difference between the two AHR forms in induction of CYP1A1” value is reported as “no differences”.

For the compound `c1ccc2c(c1)cc1ccc3cccc4ccc2c1c34` [Benzo(a)pyrene], the “concentration at which CYP1A1 and CYP1B1 mRNA levels are slightly induced” value at AHR^V381 [3] amounted to 1000 nM.

Turning to `Cc1ccccc1N=Nc1ccc(NC(=O)c2ccnn2C)c(C)c1` [CH-223191], on AHR^V381 [4], the “number of the 117 genes differing between AHR^A381 and AHR^V381 cells that change expression upon inhibitor treatment” value was “none”; the “target gene expression upon inhibitor treatment” value is “tends to be further reduced upon treatment with the inhibitor, albeit not significantly so”. Further, on AHR^A381, the “number of the 117 genes differing between AHR^A381 and AHR^V381 cells that change expression upon inhibitor treatment” value was 20 genes.
